Among the data in publication PMC9871955, “High-throughput screening of SARS-CoV-2 main and papain-like protease inhibitors” (Protein & Cell, 2022) are IC50 values, retold here.

The assay has as its target SARS-CoV-2 PL^pro (Severe acute respiratory syndrome coronavirus 2, UniProt P0DTD1). Put plainly: SARS-CoV-2 PL^pro enzymatic inhibition assay (substrate Z-RLRGG-AMC). It is filed as biochemical.
Where [1] appears, read: Table S2, PL^pro inhibitors, 40 nmol/L enzyme, 50 µmol/L substrate, read-out: IC50.
[2] abbreviates: Table S6, S/KM = 1/4, read-out: IC50 (μM) at S/KM 1/4.
[3] abbreviates: Table S6, S/KM = 2, read-out: IC50 (μM) at S/KM 2.
The mark [4] stands for this setting: Table S6, S/KM = 4, read-out: IC50 (μM) at S/KM 4.
The mark [5] stands for this setting: read-out: IC50 (μM) at S/KM 1/2.
Where [6] appears, read: read-out: IC50 / inhibitory activity toward PL^pro.
Setting [7] is: Table S3, representative dual inhibitors, read-out: IC50 for PL^pro.
[8] abbreviates: read-out: IC50 (μM) at S/KM 1/4.

Structures are written as SMILES. Read-outs that look alike come from different tables or passages of the source.

`O=C(NCc1n[nH]c(=S)n1-c1ccc(Br)cc1)c1ccc(Cl)cc1Cl` [JK0108-D008]: the IC50 stood at 58.8 ± 15.3 µM under setting [1]; 100 ± 29.6 µM under setting [2]; 102 ± 1.2 µM (Table S6, S/KM = 1, read-out: IC50 (μM) at S/KM 1); 200 ± 47.6 µM under setting [3]; 133 ± 14.7 µM under setting [4]; 94.6 ± 11.3 µM under setting [5]. Besides, the IC50 under setting [6] was found to be 58.8 ± 15.3 µM.

Take `CCOc1cc(C(=O)NCc2n[nH]c(=S)n2-c2ccc(Br)cc2)cc(OCC)c1OCC` [JK0109-B004]: the IC50 under setting [1] is 43 ± 0.92 µM; the IC50 under setting [7] was found to be 43 ± 0.9 µM; the IC50 under setting [2] is 2.4 ± 0.1 µM; the IC50 under setting [3] was determined as 8.5 ± 0.9 µM; the IC50 under setting [4] is 18.3 ± 1 µM; the IC50 (read-out: IC50 (μM) at S/KM 1) came out at 5.9 ± 0.6 µM. For the same compound, under setting [5], the IC50 is 2.6 ± 0.5 µM.

`CCC(C(=O)NCc1ccco1)n1c(Cc2c(Cl)cccc2Cl)nc2ccccc21` (stereo not shown) [CD3226-D010]: the IC50 reads like this: under setting [1], 8.61 ± 3.07 µM; under setting [2], 7.6 ± 1 µM.

As to `O=c1sc2ccccc2n1Cc1n[nH]c(=S)n1-c1ccccc1` [JK0946-F007], the IC50 by setting is: under setting [3], 105 ± 4.7 µM; under setting [4], 202 ± 50.9 µM; (read-out: IC50 (μM) at S/KM 1) 43.9 ± 9 µM; under setting [5], 30.3 ± 2.3 µM.

Consider `COc1ccc(-n2c(CNC(=O)COc3ccc(Cl)cc3Cl)n[nH]c2=S)cc1` [JK0109-B011], for which the IC50 is, setting by setting: under setting [1], 6.01 ± 0.02 µM; under setting [3], 12.4 ± 1.7 µM; (read-out: IC50 (μM) at S/KM 1) 7.3 ± 0.1 µM; under setting [5], 7.4 ± 0.6 µM; under setting [8], 7.9 ± 1.7 µM; under setting [6], 6 µM.

Take `COc1ccc(-n2c(S)nnc2CNC(=O)c2cc(OC)c(OC)c(OC)c2)cc1` [JK0109-C011]: the IC50 under setting [1] was 21.2 ± 1.79 µM; the IC50 under setting [7] amounted to 21.2 ± 1.8 µM; the IC50 under setting [3] came to 10.7 ± 0.7 µM; the IC50 under setting [4] turned out to be 18.6 ± 2.7 µM; the IC50 (read-out: IC50 (μM) at S/KM 1) worked out at 9.4 ± 2.9 µM; the IC50 under setting [5] was found to be 7.1 ± 0.7 µM. Moreover, under setting [8], the IC50 is 5.9 ± 0.2 µM.

Regarding `CC(C(=O)NCc1ccco1)n1c(Cc2c(Cl)cccc2Cl)nc2ccccc21` (stereo not shown) [CD3531-C011], the IC50 under setting [1] was determined as 1.98 ± 0.23 µM; the IC50 under setting [3] is 2.4 ± 0.2 µM; the IC50 under setting [4] turned out to be 2.7 ± 0.1 µM; the IC50 (read-out: IC50 (μM) at S/KM 1) is 2.2 ± 0.3 µM; the IC50 under setting [5] was found to be 1.5 µM; the IC50 under setting [8] stood at 1.5 ± 0.4 µM.

On to `O=C(COc1ccc(Cl)cc1)NCc1n[nH]c(=S)n1-c1ccc(Br)cc1` [JK0109-H005], for which the IC50 amounted to 78.5 ± 5.7 µM under setting [3], 91.6 ± 8.9 µM under setting [4], 33 ± 17.9 µM (read-out: IC50 (μM) at S/KM 1) and 21.9 ± 2 µM under setting [5].
